Measured values from ChEMBL document CHEMBL1125546, “Novel 5-HT3 antagonists. Isoquinolinones and 3-aryl-2-pyridones” (J Med Chem, 1992).

Assays:
[1] = tested on: Rattus norvegicus; experiment: Inhibitory activity against Bezold-jarisch functional assay, inducing a transient bradycardia upon intravenous administration of 5-hydroxytryptamine-(10 ug/kg) in anesthetized rats.; details: read-out: ID50 (the source's name)
[2] = Compound was evaluated for protection against cisplatin-induced emesis by measuring number of retches in ferrets when administered perorally at 0.3 mg/kg.; format: functional, Mustela putorius furo; details: route oral
[3] = Compound was evaluated for protection against cisplatin-induced emesis by measuring number of emetic episodes in ferrets when administered intravenously at 0.01 mg/kg; format: functional, Mustela putorius furo; details: route intravenous
[4] = Compound was evaluated for protection against cisplatin-induced emesis by measuring number of emetic episodes in ferrets when administered perorally at 0.3 mg/kg; format: functional, Mustela putorius furo; details: route oral
[5] = Compound was evaluated for protection against cisplatin-induced emesis by measuring number of retches in ferrets when administered intravenously at 0.3 mg/kg.; format: functional, Mustela putorius furo; details: route intravenous
[6] = Compound was evaluated for protection against cisplatin-induced emesis by measuring number of emetic episodes in ferrets when administered intravenously at 0.3 mg/kg; format: functional, Mustela putorius furo; details: route intravenous
[7] = Compound was evaluated for protection against cisplatin-induced emesis by measuring number of emetic episodes in ferrets when administered perorally at 0.1 mg/kg; format: functional, Mustela putorius furo; details: route oral
[8] = Compound was evaluated for protection against cisplatin-induced emesis by measuring number of retches in ferrets when administered intravenously at 0.01 mg/kg; format: functional, Mustela putorius furo; details: route intravenous
[9] = Compound was evaluated for protection against cisplatin-induced emesis by measuring number of retches in ferrets when administered perorally at 0.1 mg/kg; format: functional, Mustela putorius furo; details: route oral
[10] = Compound was evaluated for protection against cisplatin-induced emesis by measuring number of retches in ferrets when administered perorally at 0.03 mg/kg; format: functional, Mustela putorius furo; details: route oral
[11] = Compound was evaluated for protection against cisplatin-induced emesis by measuring number of emetic episodes in ferrets when administered intravenously at 0.1 mg/kg.; format: functional, Mustela putorius furo; details: route intravenous
[12] = Compound was evaluated for protection against cisplatin-induced emesis by measuring number of emetic episodes in ferrets when administered perorally at 0.03 mg/kg; format: functional, Mustela putorius furo; details: route oral
[13] = Compound was evaluated for protection against cisplatin-induced emesis by measuring number of retches in ferrets when administered intravenously at 0.1 mg/kg; format: functional, Mustela putorius furo; details: route intravenous
[14] = Compound was evaluated for protection against cisplatin-induced emesis by measuring number of retches in ferrets when administered intravenously at 0.03 mg/kg.; format: functional, Mustela putorius furo; details: route intravenous
[15] = Compound was evaluated for protection against cisplatin-induced emesis by measuring number of emetic episodes in ferrets when administered intravenously at 0.03 mg/kg.; format: functional, Mustela putorius furo; details: route intravenous
[16] = tested on: Canis familiaris; experiment: Compound was evaluated for protection against cisplatin-induced emesis by measuring number of emetic episodes in dogs administered intravenously at 0.1 mg/kg.; format: functional, Canis lupus familiaris; details: route intravenous
[17] = tested on: Canis familiaris; experiment: Compound was evaluated for protection against cisplatin-induced emesis by measuring number of retches in dogs administered intravenously at 0.3 mg/kg.; format: functional, Canis lupus familiaris; details: route intravenous
[18] = Compound was evaluated for number of emetic episodes in ferrets administered intravenously at 0.01 mg/kg.; format: functional, Mustela putorius furo; details: route intravenous
[19] = Compound was evaluated for protection against cisplatin-induced emesis by measuring number of retches in ferrets administered intravenously at 0.03 mg/kg.; format: functional, Mustela putorius furo; details: route intravenous
[20] = Compound was evaluated for protection against cisplatin-induced emesis by measuring number of retches in ferrets administered perorally at 1.0 mg/kg.; format: functional, Mustela putorius furo; details: route oral
[21] = tested on: Canis familiaris; experiment: Compound was evaluated for protection against cisplatin-induced emesis by measuring number of emetic episodes in dogs administered perorally at 0.1 mg/kg.; format: functional, Canis lupus familiaris; details: route oral
[22] = tested on: Canis familiaris; experiment: Compound was evaluated for protection against cisplatin-induced emesis by measuring number of retches in dogs administered perorally at 0.1 mg/kg.; format: functional, Canis lupus familiaris; details: route oral
[23] = Compound was evaluated for protection against cisplatin-induced emesis by measuring number of emetic episodes in ferrets administered perorally at 0.1 mg/kg.; format: functional, Mustela putorius furo; details: route oral
[24] = Compound was evaluated for protection against cisplatin-induced emesis by measuring number of emetic episodes in ferrets administered perorally at 0.3 mg/kg.; format: functional, Mustela putorius furo; details: route oral
[25] = Compound was evaluated for protection against cisplatin-induced emesis by measuring number of retches in ferrets administered perorally at 0.3 mg/kg.; format: functional, Mustela putorius furo; details: route oral
[26] = Compound was evaluated for protection against cisplatin-induced emesis by measuring number of emetic episodes in ferrets administered intravenously at 0.3 mg/kg.; format: functional, Mustela putorius furo; details: route intravenous
[27] = tested on: Canis familiaris; experiment: Compound was evaluated for protection against cisplatin-induced emesis by measuring number of emetic episodes in dogs administered intravenously at 0.03 mg/kg.; format: functional, Canis lupus familiaris; details: route intravenous
[28] = Compound was evaluated for protection against cisplatin-induced emesis by measuring number of retches in ferrets administered intravenously at 0.1 mg/kg.; format: functional, Mustela putorius furo; details: route intravenous
[29] = tested on: Canis familiaris; experiment: Compound was evaluated for protection against cisplatin-induced emesis by measuring number of retches in dogs administered intravenously at 0.03 mg/kg.; format: functional, Canis lupus familiaris; details: route intravenous
[30] = tested on: Canis familiaris; experiment: Compound was evaluated for protection against cisplatin-induced emesis by measuring number of retches in dogs administered intravenously at 0.1 mg/kg.; format: functional, Canis lupus familiaris; details: route intravenous
[31] = tested on: Canis familiaris; experiment: Compound was evaluated for protection against cisplatin-induced emesis by measuring number of retches in dogs administered perorally at 1.0 mg/kg.; format: functional, Canis lupus familiaris; details: route oral
[32] = tested on: Canis familiaris; experiment: Compound was evaluated for protection against cisplatin-induced emesis by measuring number of emetic episodes in dogs administered perorally at 0.3 mg/kg.; format: functional, Canis lupus familiaris; details: route oral
[33] = tested on: Canis familiaris; experiment: Compound was evaluated for number of retches in dogs administered perorally at 0.3 mg/kg.; format: functional, Canis lupus familiaris; details: route oral
[34] = Compound was evaluated for protection against cisplatin-induced emesis by measuring number of emetic episodes in ferrets administered perorally at 1.0 mg/kg.; format: functional, Mustela putorius furo; details: route oral
[35] = tested on: Canis familiaris; experiment: Compound was evaluated for protection against cisplatin-induced emesis by measuring number of emetic episodes in dogs administered perorally at 1.0 mg/kg.; format: functional, Canis lupus familiaris; details: route oral
[36] = Compound was evaluated for protection against cisplatin-induced emesis by measuring number of retches in ferrets administered intravenously at 0.3 mg/kg.; format: functional, Mustela putorius furo; details: route intravenous
[37] = Compound was evaluated for protection against cisplatin-induced emesis by measuring number of retches in ferrets administered perorally at 0.1 mg/kg.; format: functional, Mustela putorius furo; details: route oral
[38] = Compound was evaluated for protection against cisplatin-induced emesis by measuring number of retches in ferrets administered intravenously at 0.01 mg/kg.; format: functional, Mustela putorius furo; details: route intravenous
[39] = Compound was evaluated for protection against cisplatin-induced emesis by measuring number of emetic episodes in ferrets administered intravenously at 0.1 mg/kg.; format: functional, Mustela putorius furo; details: route intravenous
[40] = tested on: Canis familiaris; experiment: Compound was evaluated for protection against cisplatin-induced emesis by measuring number of emetic episodes in dogs administered intravenously at 0.3 mg/kg.; format: functional, Canis lupus familiaris; details: route intravenous
[41] = Compound was evaluated for protection against cisplatin-induced emesis by measuring number of emetic episodes in ferrets administered intravenously at 0.03 mg/kg.; format: functional, Mustela putorius furo; details: route intravenous

Cc1[nH]cnc1Cn1ccc2c3ccccc3c3ccccc3c2c1=O
ED50 [1]: 6.95 µg/kg

Cc1[nH]cnc1Cn1cccc(-c2cccc(Cl)c2)c1=O
ED50 [1]: 10 µg/kg

Cc1[nH]cnc1Cn1cccc(-c2ccc(Br)s2)c1=O
ED50 [1]: 7.49 µg/kg

Cc1[nH]cnc1Cn1ccc2ccc3cccnc3c2c1=O
ED50 [1]: 24.3 µg/kg

Cc1[nH]cnc1Cn1cccc(-c2cccc(F)c2)c1=O
ED50 [1]: 29.9 µg/kg

Cc1cccc(-c2cccn(Cc3[nH]cnc3C)c2=O)c1
ED50 [1]: 9.03 µg/kg

Cc1ccsc1-c1cccn(Cc2[nH]cnc2C)c1=O
ED50 [1]: 0.44 µg/kg

Cc1[nH]cnc1Cn1cccc(-c2ccco2)c1=O
ED50 [1]: 0.9 µg/kg

COc1ccccc1-c1cccn(Cc2[nH]cnc2C)c1=O
ED50 [1]: 18.2 µg/kg

Cc1[nH]cnc1Cn1cccc(-c2cccc([N+](=O)[O-])c2)c1=O
ED50 [1]: > 100 µg/kg

Cc1[nH]cnc1Cn1ccc2c(O)nc3ccccc3c2c1=O
ED50 [1]: 0.05 µg/kg

Cc1[nH]cnc1Cn1ccc2cc(N)c(Cl)cc2c1=O
No. of retches [2]: 3.5
No. of emetic episodes [3]: 10
No. of emetic episodes [4]: 0.2
No. of retches [5]: 18.8
No. of emetic episodes [6]: 0.8
No. of emetic episodes [7]: 1.2
No. of retches [8]: 116.8
No. of retches [9]: 18.6
No. of retches [10]: 142.2
No. of emetic episodes [11]: 1.3
No. of emetic episodes [12]: 8.8
No. of retches [13]: 26.5
No. of retches [14]: 71
No. of emetic episodes [15]: 4.8
ED50 [1]: 0.36 µg/kg

Cc1[nH]cnc1Cn1ccc2ccc3c(ccn3C)c2c1=O
ED50 [1]: 1.64 µg/kg

Cc1[nH]cnc1Cn1ccc2cc3c(cc2c1=O)OCCO3
ED50 [1]: > 100 µg/kg

Cc1[nH]cnc1Cn1ccc2c(c1=O)-c1ccsc1CC2
ED50 [1]: 2.78 µg/kg

Cc1[nH]cnc1Cn1ccc2c(CO)cc3ccccc3c2c1=O
ED50 [1]: 0.68 µg/kg

COc1cc2ccccc2c2c(=O)n(Cc3[nH]cnc3C)ccc12
ED50 [1]: 2.53 µg/kg

Cc1[nH]cnc1Cn1ncc2ccccc2c1=O
ED50 [1]: > 100 µg/kg

Cc1[nH]cnc1Cn1ccc2c(Cl)cc(Cl)cc2c1=O
ED50 [1]: 34.6 µg/kg

COc1cccc(-c2cccn(Cc3[nH]cnc3C)c2=O)c1
ED50 [1]: 26.7 µg/kg

Cc1[nH]cnc1Cn1ccc2ccccc2c1=O
ED50 [1]: 38.7 µg/kg

Cc1nc[nH]c1Cn1ccc2cc(C)c3ccccc3c2c1=O
ED50 [1]: 0.82 µg/kg

Cc1ccc(-c2cccn(Cc3[nH]cnc3C)c2=O)s1
ED50 [1]: 3.62 µg/kg

Cc1[nH]cnc1Cn1cccc(-c2ccccc2O)c1=O
ED50 [1]: 40 µg/kg

Cc1[nH]cnc1Cn1ccc2c(N)cccc2c1=O
ED50 [1]: > 100 µg/kg

Cc1[nH]cnc1Cn1ccc2ccc3ccccc3c2c1=O
No. of emetic episodes [16]: 4.4
No. of retches [17]: 42.4
No. of emetic episodes [18]: 10.8
No. of retches [19]: 79
No. of retches [20]: 1
No. of emetic episodes [21]: 10.8
No. of retches [22]: 133.2
No. of emetic episodes [23]: 4.8
No. of emetic episodes [24]: 1.3
No. of retches [25]: 31.5
No. of emetic episodes [26]: 0
No. of emetic episodes [27]: 10.2
No. of retches [28]: 65
No. of retches [29]: 143.8
No. of retches [30]: 53.8
No. of retches [31]: 26.3
No. of emetic episodes [32]: 4
No. of retches [33]: 27.8
No. of emetic episodes [34]: 0
No. of emetic episodes [35]: 1.8
No. of retches [36]: 11.8
No. of retches [37]: 89.3
No. of retches [38]: 144.5
No. of emetic episodes [39]: 2
No. of emetic episodes [40]: 3.4
No. of emetic episodes [41]: 5
ED50 [1]: 0.3 µg/kg
